From ChEMBL document CHEMBL5620390, “A novel multifunctional mitochondrion-targeting NIR fluorophore probe inhibits tumour proliferation and metastasis through the PPARγ/ROS/β-catenin pathway” (Eur J Med Chem, 2023)
Active and inactive are the calls of the source. The rule behind the calls is not given here.

Legend:
[1] = Drug uptake in human MDA-MB-231 cells assessed as fluorescence intensity at 2.5 uM incubated for 1 hr by confocal laser scanning microscopic analysis; format: ADME, cell-based; details: mda-mb-231, 1 h
[2] = Drug uptake in human A549 cells assessed as fluorescence intensity at 2.5 uM incubated for 1 hr by confocal laser scanning microscopic analysis; format: ADME, cell-based; details: a549, 1 h
[3] = Drug uptake in mouse B16-F10 cells implanted in C57BL/6J mouse assessed as fluorescence aggregation in tumor at 3 mg/kg, iv measured after 3 to 6 hrs; format: ADME, organism-based; details: in vivo, time 3-6 hrs
[4] = Drug uptake in mouse B16-F10 cells mitochondria at 2.5 uM incubated for 25 mins by mito-tracker green dye based confocal laser scanning fluorescence microscopy analysis; format: ADME; details: b16-f10, 25 min
[5] = system: B16-F10; test: Induction of ROS generation in mouse B16-F10 cells assessed as reduction in SOD2 expression level at 0.31 to 1.25 uM incubated for 24 hrs; format: functional, cell-based; details: dose 0.31-1.25 µM
[6] = system: A-375; test: Inhibition of ROS generation in human A-375 cells preincubated with rosiglitazone for 2 hrs followed by wash out and compound addition for 1 hr by DCFH-DA staining based inverted fluorescence microscopic analysis; format: functional, cell-based
[7] = system: B16-F10; test: Inhibition of ROS generation in mouse B16-F10 cells preincubated with rosiglitazone for 2 hrs followed by wash out and compound addition for 1 hr by DCFH-DA staining based inverted fluorescence microscopic analysis; format: functional, cell-based
[8] = system: A-375; test: Inhibition of ROS generation in human A-375 cells at 1.25 uM preincubated with rosiglitazone for 2 hrs followed by wash out and compound addition for 1 hr by DCFH-DA staining based inverted fluorescence microscopic analysis; format: functional; design: scale not given: the % may be the effect or the level left
[9] = system: B16-F10; test: Inhibition of ROS generation in mouse B16-F10 cells at 1.25 uM preincubated with rosiglitazone for 2 hrs followed by wash out and compound addition for 1 hr by DCFH-DA staining based inverted fluorescence microscopic analysis; format: functional; design: scale not given: the % may be the effect or the level left
[10] = system: A-375; test: Induction of ROS generation in human A-375 cells assessed as reduction in PPARgamma expression level at 1.25 uM preincubated with rosiglitazone for 24 hrs followed by compound addition for 24 hrs; format: functional, cell-based
[11] = system: A-375; test: Induction of ROS generation in human A-375 cells assessed as reduction in GPX1 expression level at 1.25 uM preincubated with rosiglitazone for 24 hrs followed by compound addition for 24 hrs; format: functional, cell-based
[12] = system: B16-F10; test: Induction of ROS generation in mouse B16-F10 cells assessed as reduction in GPX1 expression level at 1.25 uM preincubated with rosiglitazone for 24 hrs followed by compound addition for 24 hrs; format: functional, cell-based
[13] = system: A-375; test: Antiproliferative activity against human A-375 cells assessed as inhibition of cell growth at 0.31 uM after 72 hrs by MTT assay; format: functional; design: scale not given: the % may be the effect or the level left
[14] = system: B16-F10; test: Antiproliferative activity against mouse B16-F10 cells assessed as inhibition of cell growth at 0.31 uM after 72 hrs by MTT assay; format: functional; design: scale not given: the % may be the effect or the level left
[15] = system: A-375; test: Antiproliferative activity against human A-375 cells assessed as inhibition of cell growth at 0.04 to 10 uM by MTT assay; format: functional, cell-based; details: dose 0.04-10 µM, time 24-72 hrs, TDE = time-dependent effect
[16] = system: B16-F10; test: Antiproliferative activity against mouse B16-F10 cells assessed as inhibition of cell growth at 0.04 to 10 uM by MTT assay; format: functional, cell-based; details: dose 0.04-10 µM, time 24-72 hrs, TDE = time-dependent effect
[17] = system: B16-F10; test: Inhibition of colony formation in mouse B16-F10 cells at less than 0.63 uM by crystal violet staining based assay; format: functional, cell-based
[18] = system: B16-F10; test: Induction of cell cycle arrest in mouse B16-F10 cells assessed as accumulation of cells at G0/G1 phase incubated for 24 hrs by PI staining based flow cytometry analysis (reference value: 10.93%); format: functional
[19] = system: B16-F10; test: Inhibition of tumor metastasis in mouse B16-F10 cells assessed as reduction in wound healing after 24 hrs; format: functional, cell-based; details: dose 0.08-1.25 µM
[20] = system: A-375; test: Inhibition of Wnt/beta-catenin signaling in human A-375 cells assessed as reduction in TCF4 expression at 1.25 uM incubated for 24 hrs; format: cell-based
[21] = system: B16-F10; test: Inhibition of Wnt/beta-catenin signaling in mouse B16-F10 cells assessed as reduction in beta-catenin expression at 1.25 uM incubated for 24 hrs; format: cell-based
[22] = system: B16-F10; test: Inhibition of Wnt/beta-catenin signaling in mouse B16-F10 cells assessed as reduction in TCF4 expression at 1.25 uM preincubated with rosiglitazone for 24 hrs followed by compound addition and measured after 24 hrs in presence of H2O2; format: cell-based
[23] = system: A-375; test: Induction of cell cycle arrest in human A-375 cells assessed as P21 protein accumulation at 0.31 to 1.25 uM after 24 hrs by Western blotting analysis; format: functional, cell-based; details: dose 0.31-1.25 µM
[24] = system: B16-F10; test: Induction of cell cycle arrest in mouse B16-F10 cells assessed as reduction in cyclin E1 protein level at 0.31 to 1.25 uM after 24 hrs by Western blotting analysis; format: functional, cell-based; details: dose 0.31-1.25 µM
[25] = system: A-375; test: Inhibition of cell metastasis in human A-375 cells assessed as reduction in MMP9 protein level at 0.31 to 1.25 uM after 24 hrs by Western blotting analysis; format: functional, cell-based; details: dose 0.31-1.25 µM
[26] = system: B16-F10; test: Antitumor activity against mouse B16-F10 cells inoculated in C57BL/6J mouse assessed as reduction in tumor weight at 0.5 to 2 mg/kg, ip administered every other day and measured on day 22; format: functional, organism-based; details: dose 0.5-2 mg/kg, time 22.0 day
[27] = system: B16-F10; test: Antitumor activity against mouse B16-F10 cells inoculated in C57BL/6J mouse assessed as reduction in tumor volume at 0.5 to 2 mg/kg, ip administered every other day and measured on day 22; format: functional, organism-based; details: dose 0.5-2 mg/kg, time 22.0 day
[28] = system: B16-F10; test: Antitumor activity against mouse B16-F10 cells inoculated in C57BL/6J mouse assessed as reduction in tumor growth at 0.5 to 2 mg/kg, ip administered every other day and measured on day 22; format: functional, organism-based; details: dose 0.5-2 mg/kg, time 22.0 day
[29] = Toxicity in C57BL/6J mouse inoculated with mouse B16-F10 cells assessed as reduction in body weight at 2 mg/kg, ip administered every other day and measured after 14 days; format: organism-based; design: scale not given: the % may be the effect or the level left; details: in vivo, 336 h, time 14 day
[30] = Toxicity in C57BL/6J mouse inoculated with mouse B16-F10 cells assessed as effect on kidney morphology at 2 mg/kg, ip administered every other day for 22 days by H and E staining based assay; format: organism-based; details: in vivo, 528 h, time 22 day
[31] = Toxicity in mouse inoculated with mouse B16-F10 cells assessed as change in body weight at 2 mg/kg, ip administered every other day and measured on day 18; format: organism-based; details: in vivo, 432 h, time 18 day
[32] = system: B16-F10; test: Antitumor activity against mouse B16-F10 cells inoculated in mouse assessed as reduction in tumor metastasis at 2 mg/kg, ip administered every other day and measured on day 18 by H and E staining based assay; format: functional, organism-based; details: time 18.0 day
[33] = system: B16-F10; test: Antitumor activity against mouse B16-F10 cells inoculated in mouse assessed as reduction in spleen metastasis at 2 mg/kg, ip administered every other day and measured on day 18 by H and E staining based assay; format: functional, organism-based; details: time 18.0 day
[34] = system: B16-F10; test: Antitumor activity against mouse B16-F10 cells inoculated in mouse assessed as reduction in MMP9 expression at 2 mg/kg, ip administered every other day and measured on day 18 by immunohistochemistry analysis; format: functional, organism-based; details: time 18.0 day

## CC[N+]1=C(/C=C/C2=C(Cl)C(=C/C=C3\N(CCCCCC(=O)O/C(=N/C4CCCCC4)NC4CCCCC4)c4ccccc4C3(C)C)/CCC2)C(C)(C)c2ccccc21.[Br-]
[1]
  Drug uptake: Active
[2]
  Drug uptake: Active
[3]
  Drug uptake: Active
[4]
  Drug uptake: Active
[5]
  Activity: Active
[6]
  Activity: Dose-Dependent Effect
[7]
  Activity: Dose-Dependent Effect
[8]
  Activity: >50%
[9]
  Activity: >50%
[10]
  Activity: inactive
[11]
  Activity: inactive
[12]
  Activity: inactive
[13]
  Activity: 70%
[14]
  Activity: 70%
[15]
  Activity: Tde
[16]
  Activity: Tde
[17]
  inhibition: Active
[18]
  Activity: 40.75%
[19]
  inhibition: Dose-Dependent Effect
[20]
  inhibition: Active
[21]
  inhibition: Active
[22]
  Activity: inactive
[23]
  Activity: Active
[24]
  Activity: Active
[25]
  inhibition: Active
[26]
  Activity: Active
[27]
  Activity: Active
[28]
  Activity: Active
[29]
  Activity: 13.5%
[30]
  Activity: Non-Toxic
[31]
  Activity: Non-Toxic
[32]
  Activity: Active
[33]
  Activity: Active
[34]
  Activity: Active
